Assay results from publication PMC2992884 (Cell metabolism, 2010).

Target: T1, ACS-3 (Caenorhabditis elegans, UniProt O44560)
T1 sequence (O44560 1-653): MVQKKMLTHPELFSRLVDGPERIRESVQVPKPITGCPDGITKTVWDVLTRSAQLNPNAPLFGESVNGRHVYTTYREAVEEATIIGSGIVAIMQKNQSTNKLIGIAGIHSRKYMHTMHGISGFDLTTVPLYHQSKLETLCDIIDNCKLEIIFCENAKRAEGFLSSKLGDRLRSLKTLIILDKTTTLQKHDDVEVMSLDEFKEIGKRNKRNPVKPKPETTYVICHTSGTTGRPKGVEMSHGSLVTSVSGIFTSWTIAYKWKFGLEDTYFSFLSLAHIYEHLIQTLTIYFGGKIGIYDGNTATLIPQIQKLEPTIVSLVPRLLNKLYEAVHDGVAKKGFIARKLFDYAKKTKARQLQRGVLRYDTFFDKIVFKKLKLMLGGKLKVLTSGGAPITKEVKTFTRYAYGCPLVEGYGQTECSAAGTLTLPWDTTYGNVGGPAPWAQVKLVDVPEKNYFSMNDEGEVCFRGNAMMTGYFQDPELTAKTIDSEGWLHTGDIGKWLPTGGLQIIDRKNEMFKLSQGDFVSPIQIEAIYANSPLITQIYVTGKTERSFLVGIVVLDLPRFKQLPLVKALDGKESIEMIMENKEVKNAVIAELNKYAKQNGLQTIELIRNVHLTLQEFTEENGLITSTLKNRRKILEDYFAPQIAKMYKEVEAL
Assay: acyl-CoA oxidase/catalase coupled colorimetric assay, […] nm
Type: biochemical
Conditions: with free long-chain fatty acid (18-carbon preferred)

With `CC(C)(COP(=O)(O)OP(=O)(O)OC[C@H]1O[C@@H](n2cnc3c(N)ncnc32)[C@H](O)[C@@H]1OP(=O)(O)O)[C@@H](O)C(=O)NCCC(=O)NCCS` [CoA] the “acyl-CoA oxidase/catalase coupled colorimetric assay, 550 nm” value was “ACS activity generates acyl-CoA species from free fatty acid and CoA”.
